# In patent US4157392A, “Pharmacologically active substituted 1,2,4-triazines” (Diamond Shamrock Corporation, priority 1978, dated 1979):
# Structures can show the parent of a compound that is named as a salt. Where two headings read alike, the source gives them in different places.
# Experiments:
# [1] = test system: phenylquinone writhing in mice; assay: Phenylquinone Writhing Assay (analgesia); assay type: in vivo, mouse (Carworth CF1 male mice); conditions: for responders at 70 mg/kg: 70 mg/kg oral
# Procedure: The phenylquinone writhing test was employed to evaluate analgesic activity according to the following procedure:
# Phenylquinone (phenyl-p-benzoquinone, No. 7104, Eastman Organic Chemicals) is made up as a 0.02% aqueous solution in 5% ethyl alcohol. Phenylquinone solutions are made up fresh twice daily. Standard reference agents and the test compounds are dissolved or suspended in a 0.25% methylcellulose solution. A control group consisting of ten mice (Carworth CF1 male mice) are administered the 0.02% phenylquinone solution at a dose of 0.25 ml/mouse. The mice are housed individually and observed closely for ten minutes for exhibition of writhing. The onset of writhing occurs within three minutes and 100% of the mice must writhe within ten minutes. Test compounds are administered orally to groups of ten mice. The volume given is 0.01 ml/gram of body weight. Activity can be studied at 15, 30, 60, and 120 minutes after oral administration. After the designated time interval of a dose group has elapsed, the mice are challenged with phenylquinone intraperitoneally. Complete blocking of the writhing syndrom for the ten minute observation period in any one mouse is considered a positive analgesic response for that mouse. Conversely, if any mouse writhes definitely once it is considered not to be protected. The number of mice not writhing in group multiplied by ten equals percent analgesia for that dose at that time interval.
# [2] = test system: carrageenin-induced edema in the hind paw of a rat; assay: Carrageenin Assay (carrageenin-induced edema, hind paw); assay type: in vivo, rat (male, Long Evans strain); conditions: 1 h before carrageenin, edema at 3 h, compared to phenylbutazone control values; for inhibition in vivo at 175 mg/kg: 175 mg/kg oral; for inhibition in vivo at 150 mg/kg: 150 mg/kg oral
# Procedure: The procedure employed is a modification of the method of Winter et al, Proc. Soc. Exptl. Biol. Med. 111:544 (1962). The device used for measurement of the paw volume is an adaptation of the water displacement procedure described by Adamkiewicz et al, Can. J. Biochem. Physiol. 33:332 (1955). Test compounds were administered orally, one hour prior to the intraplantar injection of 0.05 ml. of sterile 1.0 percent solution of carrageenin into the left hind paw of male rats (Long Evans strain) weighing between about 130-200 grams. At peak swelling time (3 hours) the volume of edema was calculated by differential paw volumes.
# Table I sets forth the results obtained (indicated as percent reduction of edema compared to phenylbutazone control values) at the indicated dosages for each of the identified compounds.
# [3] = Mus musculus, po, 0.5 h, 100 mg/kg oral, 30 Min., read-out: Phenylquinone Writhing Assay (% Control), percent analgesia
# [4] = Rattus norvegicus, read-out: % Reduction of Edema
# [5] = Mus musculus, po, 0.5 h, 50 mg/kg oral, 30 Min., read-out: Phenylquinone Writhing Assay (% Control), percent analgesia
# [6] = Rattus norvegicus, 200 mg/kg oral, read-out: % Reduction of Edema
# [7] = Mus musculus, po, 0.5 h, 30 Min., read-out: Phenylquinone Writhing Assay (% Control), percent analgesia
# [8] = Mus musculus, po, 1 h, 100 mg/kg oral, 60 Min, read-out: Phenylquinone Writhing Assay (% Control), percent analgesia
compound,measurement,setting,value
"3-methoxy-5,6-di(4'-methylphenoxy)-1,2,4-triazine [Example 26]","Phenylquinone Writhing Assay (% Control), percent analgesia","[1]; 25 mg/kg oral, 15 Min.",10%
same,"Phenylquinone Writhing Assay (% Control), percent analgesia","[1]; 25 mg/kg oral, 30 Min.",10%
same,"Phenylquinone Writhing Assay (% Control), percent analgesia","[1]; 25 mg/kg oral, 60 Min",10%
same,"Phenylquinone Writhing Assay (% Control), percent analgesia","[1]; 50 mg/kg oral, 15 Min.",40%
same,"Phenylquinone Writhing Assay (% Control), percent analgesia","[1]; 50 mg/kg oral, 30 Min.",10%
same,"Phenylquinone Writhing Assay (% Control), percent analgesia","[1]; 50 mg/kg oral, 60 Min",20%
same,"Phenylquinone Writhing Assay (% Control), percent analgesia","[1]; 100 mg/kg oral, 15 Min.",20%
same,"Phenylquinone Writhing Assay (% Control), percent analgesia","[1]; 100 mg/kg oral, 30 Min.",50%
same,"Phenylquinone Writhing Assay (% Control), percent analgesia","[1]; 100 mg/kg oral, 60 Min",50%
same,% Reduction of Edema,[2]; 200 mg/kg oral,12%
"CSc1nncc(-c2ccccc2)n1 [Example 1, 3-methylthio-5-phenyl-1,2,4-triazine]",responders at 50 mg/kg,"[1]; Mus musculus, po, 0.25 h, 50 mg/kg oral, 15 Min., read-out: Phenylquinone Writhing Assay (% Control), percent analgesia",10%
same,responders at 100 mg/kg,[1]; [3],10%
same,inhibition in vivo at 175 mg/kg,[2]; [4],27%
"CSc1nncc(C(C)(C)C)n1 [Example 4, 3-methylthio-5-t-butyl-1,2,4-triazine]",responders at 100 mg/kg,[1]; [3],20%
same,inhibition in vivo at 150 mg/kg,[2]; [4],57%
"CC(C)(C)c1cnnc(NN)n1 [Example 5, 3-hydrazino-5-t-butyl-1,2,4-triazine]",responders at 25 mg/kg,"[1]; Mus musculus, po, 0.5 h, 25 mg/kg oral, 30 Min., read-out: Phenylquinone Writhing Assay (% Control), percent analgesia",20%
same,inhibition in vivo at 175 mg/kg,[2]; [4],82%
"CSc1nncc(-c2cccs2)n1 [Example 6, 3-methylthio-5-(2'-thienyl)-1,2,4-triazine]",responders at 25 mg/kg,"[1]; Mus musculus, po, 0.25 h, 25 mg/kg oral, 15 Min., read-out: Phenylquinone Writhing Assay (% Control), percent analgesia",20%
same,responders at 50 mg/kg,[1]; [5],70%
same,inhibition in vivo at 200 mg/kg,[2]; [6],51%
"COc1nncc(-c2cccc(C(F)(F)F)c2)n1 [Example 8, 3-methoxy-5-(3'-trifluoromethylphenyl)-1,2,4-triazine]",responders at 70 mg/kg,[1]; [7],10%
same,inhibition in vivo at 100 mg/kg,"[2]; Rattus norvegicus, 100 mg/kg oral, read-out: % Reduction of Edema",77%
"CSc1nncc(-c2ccco2)n1 [Example 9, 3-methylthio-5-(2-furyl)-1,2,4-triazine]",responders at 50 mg/kg,[1]; [5],50%
same,responders at 50 mg/kg,"[1]; Mus musculus, po, 1 h, 50 mg/kg oral, 60 Min, read-out: Phenylquinone Writhing Assay (% Control), percent analgesia",10%
same,inhibition in vivo at 200 mg/kg,[2]; [6],39%
"CSc1nnc(C)c(C)n1 [Example 10, 3-methylthio-5,6-dimethyl-1,2,4-triazine]",responders at 100 mg/kg,[1]; [3],70%
same,responders at 100 mg/kg,[1]; [8],20%
same,inhibition in vivo at 70 mg/kg,"[2]; Rattus norvegicus, 70 mg/kg oral, read-out: % Reduction of Edema",54%
"CSc1nnc(-c2ccccn2)c(-c2ccccn2)n1 [Example 12, 3-methylthio-5,6-(2'-pyridyl)-1,2,4-triazine]",responders at 100 mg/kg,[1]; [3],10%
same,responders at 100 mg/kg,[1]; [8],20%
same,inhibition in vivo at 200 mg/kg,[2]; [6],19%
"CSc1nncc(-c2c[nH]c3ccccc23)n1 [Example 13, 3-methylthio-5-(3'-indolyl)-1,2,4-triazine]",inhibition in vivo at 200 mg/kg,[2]; [6],71%
"CSc1nnc(-c2ccc(NC(C)=O)cc2)c(-c2ccc(NC(C)=O)cc2)n1 [Example 14, 3-methylthio-5,6-(4'-acetamidophenyl)-1,2,4-triazine]",inhibition in vivo at 200 mg/kg,[2]; [6],12%
"COc1nncc(C)n1 [Example 17, 3-methoxy-5-methyl-1,2,4-triazine]",inhibition in vivo at 200 mg/kg,[2]; [6],8%
"COc1nncc(C(C)(C)C)n1 [Example 18, 3-methoxy-5-t-butyl-1,2,4-triazine]",responders at 50 mg/kg,[1]; [5],40%
same,inhibition in vivo at 200 mg/kg,[2]; [6],64%
"COc1nncc(-c2ccco2)n1 [Example 20, 3-methoxy-5-(2'-furyl)-1,2,4-triazine]",responders at 30 mg/kg,"[1]; Mus musculus, po, 0.5 h, 30 mg/kg oral, 30 Min., read-out: Phenylquinone Writhing Assay (% Control), percent analgesia",10%
same,inhibition in vivo at 175 mg/kg,[2]; [4],70%
"CCOc1nncc(-c2ccccc2)n1 [Example 21, 3-ethoxy-5-phenyl-1,2,4-triazine]",inhibition in vivo at 200 mg/kg,[2]; [6],96%
"COc1nncc(-c2ccc3ccccc3c2)n1 [Example 22, 3-methoxy-5-(2'-naphthyl)-1,2,4-triazine]",responders at 100 mg/kg,"[1]; Mus musculus, po, 0.25 h, 100 mg/kg oral, 15 Min., read-out: Phenylquinone Writhing Assay (% Control), percent analgesia",20%
same,responders at 100 mg/kg,[1]; [3],10%
same,responders at 100 mg/kg,[1]; [8],10%
same,inhibition in vivo at 200 mg/kg,[2]; [6],7%
"COc1nnc(C)c(C)n1 [Example 23, 3-methoxy-5,6-dimethyl-1,2,4-triazine]",inhibition in vivo at 40 mg/kg,"[2]; Rattus norvegicus, 40 mg/kg oral, read-out: % Reduction of Edema",4%
"Cc1nnc(OC(C)C)nc1C [Example 24, 3-isopropoxy-5,6-dimethyl-1,2,4-triazine]",responders at 70 mg/kg,[1]; [7],10%
same,inhibition in vivo at 200 mg/kg,[2]; [6],37%
"COc1nnc(-c2ccccn2)c(-c2ccccn2)n1 [Example 27, 3-methoxy-5,6-di(2'-pyridyl)-1,2,4-triazine]",inhibition in vivo at 200 mg/kg,[2]; [6],46%
"COc1ccc(-c2cnnc(SC)n2)cc1OC [Example 33, 3-methylthio-5-(3',4'-dimethoxyphenyl)-1,2,4-triazine]",inhibition in vivo at 200 mg/kg,[2]; [6],32%
"COc1nncc(C23CC4CC(CC(C4)C2)C3)n1 [Example 36, 3-methoxy-5-(1'-adamantyl)-1,2,4-triazine]",inhibition in vivo at 150 mg/kg,[2]; [4],30%
"COc1nncc(C2CC2)n1 [Example 41, 3-methoxy-5-cyclopropyl-1,2,4-triazine]",inhibition in vivo at 200 mg/kg,[2]; [6],57%
"COc1nncc(-c2ccc(Br)cc2)n1 [Example 45, 3-methoxy-5-(4'-bromophenyl)-1,2,4-triazine]",inhibition in vivo at 200 mg/kg,[2]; [6],33%
"COc1ccc(-c2cnnc(OC)n2)cc1 [Example 46, 3-methoxy-5-(4'-methoxyphenyl)-1,2,4-triazine]",inhibition in vivo at 200 mg/kg,[2]; [6],17%
"C=CCOc1nncc(-c2ccccc2)n1 [Example 47, 3-allyloxy-5-phenyl-1,2,4-triazine]",inhibition in vivo at 200 mg/kg,[2]; [6],67%
"Clc1nnc(-c2ccccc2)c(-c2ccccc2)n1 [Example 51, 3-chloro-5,6-diphenyl-1,2,4-triazine]",inhibition in vivo at 200 mg/kg,[2]; [6],4%
"Cc1nnc(SCc2ccccc2)nc1C [Example 56, 3-benzylthio-5,6-dimethyl-1,2,4-triazine]",inhibition in vivo at 200 mg/kg,[2]; [6],52%
"CSc1nncc(-c2ccc([N+](=O)[O-])cc2)n1 [Example 57, 3-methylthio-5-(4'-nitrophenyl)-1,2,4-triazine]",inhibition in vivo at 200 mg/kg,[2]; [6],16%
"COc1nncc(-c2ccc(F)cc2F)n1 [Example 58, 3-methoxy-5-(2',4'-difluorophenyl)-1,2,4-triazine]",inhibition in vivo at 150 mg/kg,[2]; [4],36%
"CSc1nncc(-c2ccccc2)n1 [Example 59, 3-methylthio-5-phenyl-1,2,4-triazine (hydrogen iodide salt)]",inhibition in vivo at 150 mg/kg,[2]; [4],14%
"Cc1ccc(Oc2nnc(-c3ccccc3)c(-c3ccccc3)n2)cc1 [Example 60, 3-(4'-methylphenoxy)-5,6-diphenyl-1,2,4-triazine]",inhibition in vivo at 200 mg/kg,[2]; [6],18%
"CCOc1nnc(-c2ccccc2)c(-c2ccccc2)n1 [Example 61, 3-ethoxy-5,6-diphenyl-1,2,4-triazine]",inhibition in vivo at 200 mg/kg,[2]; [6],12%
"CCc1ccc(-c2cnnc(SC)n2)cc1 [Example 62, 3-methylthio-5-(4'-ethylphenyl)-1,2,4-triazine]",inhibition in vivo at 200 mg/kg,[2]; [6],33%
"COc1ccc(Oc2nncc(-c3ccccc3)n2)cc1 [Example 63, 3-(4'-methoxyphenoxy)-5-phenyl-1,2,4-triazine]",inhibition in vivo at 200 mg/kg,[2]; [6],15%
"CCCCCOc1nncc(-c2ccccc2)n1 [Example 64, 3-n-pentoxy-5-phenyl-1,2,4-triazine]",inhibition in vivo at 200 mg/kg,[2]; [6],29%
"NCC(=O)NNc1nncc(-c2ccccc2)n1 [Example 113, N2-(5-Phenyl-1,2,4-Triazin-3-yl) Glycine Hydrazide (Dihydrobromide Hydrate)]",inhibition in vivo at 50 mg/kg,"[2]; Rattus norvegicus, 50 mg/kg oral, read-out: % Reduction of Edema",32%
